# Test results from article PMC5007270, “[^68Ga]NODAGA-RGD – Metabolic stability, biodistribution, and dosimetry data from patients with hepatocellular carcinoma and liver cirrhosis” (European Journal of Nuclear Medicine and Molecular Imaging, 2016).
# “Also recorded” adds a separate entry of the source. Where two headings read alike, the source gives them in different places.
# Experiments:
# [1] = in vivo; cited from earlier work
# From the text: The radiation dose estimates from this study indicate low radiation burden for patients during a [^68Ga]NODAGA-RGD PET scan. The total effective dose was in the range of other radiolabeled RGD-peptides used in clinical studies (e.g., [^18F]Galacto-RGD, Fluciclatide, and RGD-K5; for overview see [6]) as well as other commonly used oncologic PET tracers such as [^18F]FDG (between 20 and 30 μSv/MBq). Even if 200 MBq [^68Ga]NODAGA-RGD (average in this study was 167 ± 10 MBq) would have been injected, the effective dose would have only been 4.3 mSv. This is well within the limits of risk c ...
# [2] = Safety and tolerability, phase I clinical study; assay type: in vivo, human
# From the text: (§1) The study included nine patients, and was approved by the ethics committee of the Medical University of Innsbruck and the Austrian Competent Authority (BASG, EudraCT No. 2013-003741-42). Informed written consent was obtained from all patients. Inclusion criteria were untreated HCC lesions in patients with liver cirrhosis Child–Pugh class A or B. Diagnosis and exact number and size of HCC lesions was confirmed by a multiphasic CT or MRI according to EASL/EORTC guidelines. Exclusion criteria were decompensated liver cirrhosis Child–Pugh class C, uncontrolled complications of portal hypertension (refractory ascites, advanced hepatic encephalopathy or large esophageal varices), and advanced renal insufficiency with an eGFR below 30 ml/min. Baseline examinations included CT or MRI scan, physical examination, ECG, and laboratory tests (including creatinine, blood count, transaminases, bilirubin, and coagulation parameters) not older than 14 days prior to the PET scan. Physical examination and laboratory tests were repeated on the day after the PET scan and during further follow-up visits to assess possible adverse reactions.
# [3] = Metabolite analysis of blood samples by RP-HPLC; assay type: in vivo; details: human blood 30 and 60 min p.i., n = 3; acetonitrile extraction, RP-HPLC C18, 30-s fractions, gamma counter
# Method: (§2) Blood samples were collected 30 and 60 min and urine 60 min after tracer injection. Blood samples (approx. 15 ml) were centrifuged at 2,500 rpm for 5 min. The supernatant was treated with acetonitrile (1:1) and centrifuged at 3,000 rpm for 3 min. To remove the organic solvent, 1 ml of the supernatant was treated with an argon stream and approx. 300 μl of the remaining solution was analyzed. For urine analysis, an aliquot of 1 ml was passed through a sterile filter (Millex GV, Merck KGaA, Darmstadt, Germany), washed with 1 ml water (which was separately collected) and 50 μl of the filtrate was analyzed.
# (§3) Analysis of metabolites was carried out using reversed-phase high-performance liquid chromatography (RP-HPLC) systems. For blood sample analysis, a Dionex P680 Pump (Germering, Germany) with a sample loop of 1 ml and a SRD Nucleosil 120-3C18 column (150 × 3 mm; Vienna, Austria) were used and fractions of 30 s were collected manually and counted in a 2480 Wizard^2 3″ automatic gamma counter (PerkinElmer, Vienna, Austria). For urine analysis, a Dionex Ultimate 3000 RS with an ACE 3C18 column (150 × 3 mm; Aberdeen, Great Britain) and a raytest Gabi radiometric detector (raytest Isotopenmessgeraete GmbH, Straubenhardt, Germany) were used. […]
# [4] = Metabolite analysis of urine samples by RP-HPLC; assay type: in vivo; details: human urine 60 min p.i., n = 6; RP-HPLC C18, radiometric detector
# Method: as §2, §3
# [5] = PET/CT biodistribution (%ID/l, SUV); assay type: in vivo, human; details: for SUV at 1 h / tissue uptake dose at 1 h / SUV: human, total radioactivity; for SUV at 1 h / SUV: intravenous; for SUV at 1 h / tissue uptake dose at 1 h: 60 min p.i.; for tissue uptake dose at 1 h: PET VOI; for SUV: average of all patients
# Method: For each patient, a total of three PET/CT scans were performed using a Discovery PET/CT 690 VCT scanner (GE Healthcare, Milwaukee, WI, USA). The patients were allowed to urinate after the second scan and a sample of the urine was collected for metabolic analysis. For all patients, the region from upper thigh to the skull/cranium was covered by a seven-bed emission scan (2 min per bed position; field of view is 15.2 cm with overlapping acquisitions, resulting in a length of 12.3 cm for each bed position) performed in caudocranial direction. The mean starting times of the three scans were 8.3 ± 2.1, 36.9 ± 2.8, and 75.1 ± 3.4 min after tracer injection, respectively. Injected activity ranged from 154 to 184 MBq [^68Ga]NODAGA-RGD corresponding with approx. 10–12 μg peptide. X-ray CT transmission scans were performed twice, before the first and the third scan, to correct for gamma ray attenuation and to obtain the anatomical data required for drawing of the volume of interest (VOI). A second CT scan was required to guarantee the same positioning of VOIs (as for first and second scan) for image analysis because of patient movement.
# Positron emission data were reconstructed using an ordered-subsets expectation maximization algorithm. Reconstructions were performed with two iterations and 24 subsets. The images were corrected for attenuation using CT data collected over the same regions as for emission imaging. For image analysis, Hermes software (Version P5 gold 4.4-B; Hermes Medical Solutions AB, Stockholm, Sweden) was used. Images were calibrated to Bq/ml for radiation dosimetry estimates.
# (§4) To obtain the time activity curves and to calculate the residence times, VOIs were placed in the corresponding organs (liver, urine bladder, spleen, kidneys, small intestine, muscle, lung, and left ventricle). The diameter of the VOIs was set to 2.5 cm for all organs with the exception of the liver, where it was set to 5 cm and placed in the center of the corresponding organ to avoid underestimated organ radioactivity because of partial-volume effects. Due to patient movement, the PET/CTs were fused between second and third scan to guarantee the identical position of VOIs at different scans.
# HCC lesions = experiment: Tracer accumulation in HCC lesions (PET/CT); assay type: in vivo, human; details: nine patients, HCC lesions identified by CT/MRI
# From the text: as §1, with “Baseline examinations included CT or MRI scan, physical examination, ECG, and laboratory tests (including creatinine, blood count, transaminases, bilirubin, and coagulation parameters) not older than 14 days prior to the PET scan. Physical examination and laboratory tests were repeated on the day after the PET scan and during further follow-up visits to assess possible adverse reactions.” left out
# To obtain the time activity curves and to calculate the residence times, VOIs were placed in the corresponding organs (liver, urine bladder, spleen, kidneys, small intestine, muscle, lung, and left ventricle). The diameter of the VOIs was set to 2.5 cm for all organs with the exception of the liver, where it was set to 5 cm and placed in the center of the corresponding organ to avoid underestimated organ radioactivity because of partial-volume effects. […]
# [6] = Radiation dosimetry (OLINDA/EXM); assay type: in vivo, human
# Method: For dosimetry calculations, the OLINDA/EXM software (Version 1.1, copyright Vanderbilt University, 2007) was used. Radioactivity in the source organs was determined by multiplying the measured radioactivity concentration (Bq/ml) by the organ masses from the OLINDA adult men phantom; the data were body weight- and lean body mass index-corrected; furthermore, kidney mass was patient-corrected by CT scan.
# (§5) Urinary bladder radioactivity was determined from three VOIs at least 2.5 cm in diameter drawn inside the bladder. Subsequently, the urinary bladder volume was measured by drawing freehand ROIs around bladder contour at each of the three emission scans. The volume was calculated by HERMES software. The results were used to calculate the urine bladder content residence time.
# [7] = Organ/tissue residence times; assay type: in vivo, human; details: all patients
# From the text: as §4
# Because of the limited number of measured time points, a monoexponential fit based on the decay corrected data was used for calculation of organ residence times.
# as §5
# [8] = parameters: method as in PMID 18483090; details: 60 min after injection; cited from earlier work
# [9] = i.v., OLINDA/EXM, individual residence times, mean of patients
# [10] = i.v., OLINDA/EXM, individual residence times, mean of patients, voiding after second scan
molecule,measurement,setting,value
"OC[C@H]1OC(O)[C@H]([18F])[C@@H](O)[C@@H]1O (stereo partly drawn) [[^18F]FDG, 2-[F-18]fluoro-2-deoxy-D-glucose]",effective dose,[1],20-30 μSv/MBq
"N=C(N)NCCC[C@@H]1NC(=O)[C@H](CCCCNC(=O)CCC(C(=O)O)N2CCN(CC(=O)O)CCN(CC(=O)O)CC2)NC(=O)[C@@H](Cc2ccccc2)NC(=O)[C@H](CC(=O)O)NC(=O)CNC1=O (stereo partly drawn) [[^68Ga]NODAGA-RGD, metal not drawn]","changes in kidney, liver, or heart function during follow-up","[2]; clinical and biochemical investigations, nine patients",no significant changes
same,drug-/procedure-related adverse effects,"[2]; nine male patients with HCC and liver cirrhosis, i.v. 154-184 MBq",no drug-related adverse effects were observed; also recorded: no procedure-related adverse reactions were observed
same,tolerability,"[2]; nine male patients with HCC and liver cirrhosis, i.v. 154-184 MBq (approx. 10-12 μg peptide)",well tolerated in all patients
same,metabolites in blood,[3],No metabolites could be detected; also recorded: No metabolites were detected
same,metabolites in urine,[4],No metabolites could be detected; also recorded: No metabolites were detected
same,SUV at 1 h,"[5]; bladder, patients, read-out: median SUV, bladder",31 SUV
same,SUV at 1 h,"[5]; blood, patients, read-out: median SUV, blood",0.72 SUV
same,tissue uptake dose at 1 h,"[5]; blood, patients, read-out: %ID/l, blood",0.56 ± 0.43 %ID
same,SUV at 1 h,"[5]; intestine, patients, read-out: median SUV, intestine",0.88 SUV
same,tissue uptake dose at 1 h,"[5]; intestine, patients, read-out: %ID/l, intestine",0.54 ± 0.39 %ID
same,SUV at 1 h,"[5]; kidneys, patients, read-out: median SUV, kidneys",4.5 SUV
same,SUV at 1 h,"[5]; liver, patients, read-out: median SUV, liver",2.9 SUV
same,SUV,"[5]; liver, first scan (8 ± 2 min p.i.), read-out: mean SUV in the liver, first image",3.8 SUV
same,SUV,"[5]; liver, last scan (75 ± 4 min p.i.), read-out: mean SUV in the liver, last image",2.9 SUV
same,SUV at 1 h,"[5]; lung, patients, read-out: median SUV, lung",0.39 SUV
same,tissue uptake dose at 1 h,"[5]; lung, patients, read-out: %ID/l, lung",0.22 ± 0.05 %ID
same,SUV at 1 h,"[5]; muscle, patients, read-out: median SUV, muscle",0.26 SUV
same,tissue uptake dose at 1 h,"[5]; muscle, patients, read-out: %ID/l, muscle tissue",0.16 ± 0.8 %ID
same,SUV at 1 h,"[5]; spleen, patients, read-out: median SUV, spleen",3.8 SUV
same,elimination,"[5]; patients, PET",rapid and predominantly renal elimination
same,"radioactivity concentration in the bladder after voiding, % of the value before voiding","[5]; voiding between second and third scan (60 min p.i.), Fig. 3",approx. 20%
same,uptake in HCC compared with background liver tissue,HCC lesions,No increased uptake; also recorded: no increased radioactivity concentration
same,"effective dose, 30-min bladder voiding model","[6]; OLINDA/EXM, 30-min bladder voiding model",10.9 ± 1.9 μSv/MBq
same,"absorbed radiation dose, urinary bladder wall","[6]; highest absorbed dose, OLINDA/EXM",0.26 ± 0.09 mSv/MBq
same,effective dose if 200 MBq injected,[6]; hypothetical injection of 200 MBq,4.3 mSv
same,"Radiation dose estimate, Adrenals, Mean",[6]; [9],7.88 μSv/MBq
same,"Radiation dose estimate, Brain, Mean",[6]; [9],5.21 μSv/MBq
same,"Radiation dose estimate, Breast, Mean",[6]; [9],5.01 μSv/MBq
same,"Radiation dose estimate, Gallbladder wall, Mean",[6]; [9],8.67 μSv/MBq
same,"Radiation dose estimate, Heart wall, Mean",[6]; [9],6.33 μSv/MBq
same,"Radiation dose estimate, Kidneys, Mean",[6]; [9],69.00 μSv/MBq
same,"Radiation dose estimate, Liver, Mean",[6]; [9],32.00 μSv/MBq
same,"Radiation dose estimate, Lower large intestinal wall, Mean",[6]; [9],8.98 μSv/MBq
same,"Radiation dose estimate, Lungs, Mean",[6]; [9],7.17 μSv/MBq
same,"Radiation dose estimate, Muscle, Mean",[6]; [9],6.30 μSv/MBq
same,"Radiation dose estimate, Osteogenic cells, Mean",[6]; [9],8.10 μSv/MBq
same,"Radiation dose estimate, Pancreas, Mean",[6]; [9],7.99 μSv/MBq
same,"Radiation dose estimate, Red marrow, Mean",[6]; [9],5.47 μSv/MBq
same,"Radiation dose estimate, Skin, Mean",[6]; [9],5.03 μSv/MBq
same,"Radiation dose estimate, Small intestinal wall, Mean",[6]; [9],15.80 μSv/MBq
same,"Radiation dose estimate, Spleen, Mean",[6]; [9],48.20 μSv/MBq
same,"Radiation dose estimate, Stomach wall, Mean",[6]; [9],1.95 μSv/MBq
same,"Radiation dose estimate, Testes, Mean",[6]; [9],7.15 μSv/MBq
same,"Radiation dose estimate, Thymus, Mean",[6]; [9],5.57 μSv/MBq
same,"Radiation dose estimate, Thyroid, Mean",[6]; [9],5.39 μSv/MBq
same,"Radiation dose estimate, Total body, Mean",[6]; [9],7.29 μSv/MBq
same,"Radiation dose estimate, Upper large intestinal wall, Mean",[6]; [9],7.75 μSv/MBq
same,"Effective dose, Mean",[6]; [10],21.50 μSv/MBq
same,"Radiation dose estimate, Urinary bladder wall, Mean",[6]; [10],262.00 μSv/MBq
same,sum of the mean residence time,[7]; all organs,1.11 h
same,"residence time, Remainder of body, Mean",[7],42.2 (MBq × h/MBq) × 10^2
same,"residence time, Blood, Mean",[7]; monoexponential fit,0.011 h
same,"residence time, Kidneys, Mean",[7]; monoexponential fit,0.054 h
same,"residence time, Liver, Mean",[7]; monoexponential fit,0.113 h
same,"residence time, Lungs, Mean",[7]; monoexponential fit,0.011 h
same,"residence time, Muscle, Mean",[7]; monoexponential fit,0.246 h
same,"residence time, Small intestine, Mean",[7]; monoexponential fit,1.6 (MBq × h/MBq) × 10^2
same,"residence time, Spleen, Mean",[7]; monoexponential fit,1.8 (MBq × h/MBq) × 10^2
[^18F]Fluciclatide,intact tracer in blood,[8],74%
